From patent US8003649B2 (AstraZeneca AB, priority 2007, dated 2011) come the findings set out here.

For this experiment, the target named is T1, Androgen Receptor (AR) (Homo sapiens, UniProt P10275, T878A).
T1 construct: cell based immuno-fluorescence assay using the LNCaP prostate epithelial cell line; endogenous in cells; host or cells: LNCaP clone FGC (ATCC CRL-1740)
T1 sequence (P10275 1-920 T878A): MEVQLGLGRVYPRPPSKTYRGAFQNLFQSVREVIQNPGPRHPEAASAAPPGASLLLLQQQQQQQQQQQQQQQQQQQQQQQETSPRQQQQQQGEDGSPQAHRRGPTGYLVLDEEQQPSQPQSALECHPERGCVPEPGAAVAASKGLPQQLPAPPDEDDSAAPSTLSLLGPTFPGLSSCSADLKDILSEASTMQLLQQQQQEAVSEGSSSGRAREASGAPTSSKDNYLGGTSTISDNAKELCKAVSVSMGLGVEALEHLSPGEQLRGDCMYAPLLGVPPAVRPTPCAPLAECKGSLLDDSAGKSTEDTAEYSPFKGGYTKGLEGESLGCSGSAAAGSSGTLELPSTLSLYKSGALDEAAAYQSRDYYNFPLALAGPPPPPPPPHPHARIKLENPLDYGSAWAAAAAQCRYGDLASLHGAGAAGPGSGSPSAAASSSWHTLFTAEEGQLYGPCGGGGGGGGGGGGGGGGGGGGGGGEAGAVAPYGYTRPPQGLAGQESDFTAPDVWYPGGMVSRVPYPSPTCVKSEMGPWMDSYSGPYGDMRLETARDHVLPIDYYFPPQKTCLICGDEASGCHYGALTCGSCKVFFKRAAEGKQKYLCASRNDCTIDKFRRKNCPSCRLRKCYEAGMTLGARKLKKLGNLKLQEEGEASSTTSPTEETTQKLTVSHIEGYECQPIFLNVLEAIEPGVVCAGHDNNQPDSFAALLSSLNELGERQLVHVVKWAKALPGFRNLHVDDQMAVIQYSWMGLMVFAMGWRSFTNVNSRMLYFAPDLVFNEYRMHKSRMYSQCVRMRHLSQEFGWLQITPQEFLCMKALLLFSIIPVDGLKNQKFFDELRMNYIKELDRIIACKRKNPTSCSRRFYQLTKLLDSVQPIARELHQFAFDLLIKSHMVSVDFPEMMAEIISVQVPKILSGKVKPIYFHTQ
The experiment in a line: LNCaP Androgen Receptor Down-regulation Cell Assay (immunofluorescence end point). It is filed as cell-based. The settings on record: LNCaP prostate carcinoma cells, compound incubation 20-22 hours, 50% reduction of the AR signal; read-out: Androgen Receptor Down-regulation Assay (a) IC50/μM. How it is done:
The ability of compounds to reduce Androgen Receptor (AR) numbers was assessed in a cell based immuno-fluorescence assay using the LNCaP prostate epithelial cell line.
a) LNCaP Androgen Receptor Down-regulation Cell Assay
A 5 ml volume of Growth Medium was added to each flask (as above except that 5% (v/v) charcoal stripped FBS (HyClone Code no. SH30068.03) was included instead of 10% (v/v) FBS). Cells were syringed at least twice using a sterile 18G×1.5″ (1.2×40 mm) broad gauge needle and cell density was measured using a haemocytometer.
Test data reported herein was generated using two different compounds preparation and dosing methods. In method (1) a 10 mM compound stock solution in 100% (v/v) DMSO was serially diluted in 4-fold steps in 100% (v/v) DMSO using a Thermo Scientific Matrix SerialMate. The diluted compounds were then further diluted 1 in 30 in assay media using a Thermo Scientific Matrix PlateMate and a 10 μl aliquot of this dilution was dosed to cells manually using a multi-channel pipette. In method (2) starting with a 10 mM compound stock solution, the Labcyte Echo 550 was used to generate a compound concentration response set diluted in 30 μl of assay media. The Echo 550 is a liquid handler that uses acoustic technology to perform direct microplate-to-microplate transfers of DMSO compound solutions. The system can be programmed to transfer volumes as low as […] in multiple increments between microplates and in so doing generates a serial dilution of compound which is then back-filled to normalise the DMSO concentration across the dilution range. A 10 μl volume of diluted compound is then dosed to cells using a Thermo Scientific Matrix PlateMate.
Plates were incubated overnight at 37° C., 5% CO2. Wells were then dosed with compound prepared by one of the 2 methods above and further incubated for 20-22 hours at 37° C., 5% CO2. […] This fixative solution was removed and cells were washed with 250 μl of PBS/0.05% (v/v) Tween 20 (PBST) using an automated plate washer. This process was then repeated twice more.
Immunostaining was performed at room temperature. Cells were permeabilised by the addition of 35 μl of PBS containing 0.5% Tween 20 and incubated for 1 hour at room temperature. Permeabilisation solution was removed and cells were washed with 250 μl of PBST using an automated plate washer. This process was then repeated twice more. 35 μl of Blocking Solution (PBST containing 3% (w/v) Marvel dried skimmed milk (Nestle)) was added to each well and plates were incubated at room temperature for a minimum of 1 hour. […] Then this primary antibody solution was removed from the wells followed by 3×100 μl PBST washes using a plate washer. […] Henceforth, wherever possible, plates were protected from light exposure. The plates were incubated for 1 hour and then the secondary antibody solution was removed from the wells followed by 3×100 ul PBST washes using a plate washer. Then 50 μl of PBST was added to each well and plates were covered with a black plate seal and stored at 4° C. before being read. Plates were read within six hours of completing the immunostaining.
The Green Fluorescent AR-associated signal in each well was measured using an Acumen Explorer HTS Reader (TTP Labtech Ltd., Cambridge). […] The instrument is a laser-scanning fluorescence microplate cytometer which samples the well at regular intervals and uses threshold algorithms to identify all fluorescent intensities above the solution background without the need to generate and analyse an image. These fluorescent objects can be quantified and provide a measure of the AR levels in cells. Fluorescence dose response data obtained with each compound was exported into a suitable software package (such as Origin) to perform curve fitting analysis. Down-regulation of AR levels was expressed as an IC50 value.
For the compound `N#Cc1ccccc1CN1CCN(c2ccc3nnc(C(F)(F)F)n3n2)CC1` [Example 59, 2-[[4-[3-(trifluoromethyl)-[1,2,4]triazolo[4,3-b]pyridazin-6-yl]piperazin-1-yl]methyl]benzonitrile], the DC50 came to 2.7 µM.

For the compound `FC(F)(F)c1nnc2ccc(N3CCN(Cc4csc5ccccc45)CC3)nn12` [Example 60, 6-[4-(1-benzothiophen-3-ylmethyl)piperazin-1-yl]-3-(trifluoromethyl)-[1,2,4]triazolo[4,3-b]pyridazine], the DC50 worked out at 0.61 µM.

Turning to `FC(F)(F)c1nnc2ccc(N3CCN(Cc4cscn4)CC3)nn12` [Example 61, 6-[4-(1,3-thiazol-4-ylmethyl)piperazin-1-yl]-3-(trifluoromethyl)-[1,2,4]triazolo[4,3-b]pyridazine], the DC50 stood at 7.4 µM.

Regarding `FC(F)(F)c1nnc2ccc(N3CCN(Cc4ccccc4Cl)CC3)nn12` [Example 62, 6-[4-[(2-chlorophenyl)methyl]piperazin-1-yl]-3-(trifluoromethyl)-[1,2,4]triazolo[4,3-b]pyridazine], the DC50 turned out to be 0.72 µM.

For the compound `FC(F)(F)c1nnc2ccc(N3CCN(Cc4cccc5cc[nH]c45)CC3)nn12` [Example 63, 6-[4-(1H-indol-7-ylmethyl)piperazin-1-yl]-3-(trifluoromethyl)-[1,2,4]triazolo[4,3-b]pyridazine], the DC50 turned out to be 1.5 µM.

Turning to `FC(F)(F)c1nnc2ccc(N3CCN(Cc4cnc5ccccc5c4)CC3)nn12` [Example 64, 3-[[4-[3-(trifluoromethyl)[1,2,4]triazolo[4,3-b]pyridazin-6-yl]piperazin-1-yl]methyl]quinoline], the DC50 was determined as 2.5 µM.

As to `FC(F)(F)c1nnc2ccc(N3CCN(Cc4cccc5cnccc45)CC3)nn12` [Example 65, 5-[[4-[3-(trifluoromethyl)-[1,2,4]triazolo[4,3-b]pyridazin-6-yl]piperazin-1-yl]methyl]isoquinoline], the DC50 came out at 0.76 µM.

As to `FC(F)(F)c1nnc2ccc(N3CCN(Cc4cccc5ccccc45)CC3)nn12` [Example 66, 6-[4-(naphthalen-1-ylmethyl)piperazin-1-yl]-3-(trifluoromethyl)-[1,2,4]triazolo[4,3-b]pyridazine], the DC50 was 0.33 µM.

Consider `FC(F)(F)c1ccccc1CN1CCN(c2ccc3nnc(C(F)(F)F)n3n2)CC1` [Example 67, 3-(trifluoromethyl)-6-[4-[[2-(trifluoromethyl)phenyl]methyl]piperazin-1-yl]-[1,2,4]triazolo[4,3-b]pyridazine], for which the DC50 turned out to be 1 µM.

As for `Cn1c(CN2CCN(c3ccc4nnc(C(F)(F)F)n4n3)CC2)cc2ccccc21` [Example 69, 6-[4-[(1-methylindol-2-yl)methyl]piperazin-1-yl]-3-(trifluoromethyl)-[1,2,4]triazolo[4,3-b]pyridazine], the DC50 was determined as 1.4 µM.

On to `FC(F)(F)c1nnc2ccc(N3CCN(Cc4cccs4)CC3)nn12` [Example 70, 6-[4-(thiophen-2-ylmethyl)piperazin-1-yl]-3-(trifluoromethyl)-[1,2,4]triazolo[4,3-b]pyridazine], for which the DC50 came to 0.64 µM.

Take `Cn1cc(CN2CCN(c3ccc4nnc(C(F)(F)F)n4n3)CC2)c2ccccc21` [Example 71, 6-[4-[(1-methylindol-3-yl)methyl]piperazin-1-yl]-3-(trifluoromethyl)-[1,2,4]triazolo[4,3-b]pyridazine]: the DC50 stood at 1.4 µM.

Regarding `Fc1ccccc1CN1CCN(c2ccc3nnc(C(F)(F)F)n3n2)CC1` [Example 72, 6-[4-[(2-fluorophenyl)methyl]piperazin-1-yl]-3-(trifluoromethyl)-[1,2,4]triazolo[4,3-b]pyridazine], the DC50 was determined as 1 µM.

`CS(=O)(=O)c1cccc(CN2CCN(c3ccc4nnc(C(F)(F)F)n4n3)CC2)c1` [Example 74, 6-[4-[(3-methylsulfonylphenyl)methyl]piperazin-1-yl]-3-(trifluoromethyl)-[1,2,4]triazolo[4,3-b]pyridazine]: the DC50 is 5.6 µM.
